In the supplement of paper PMC11208160:

Test: recombinant barcode read abundance after kanamycin selection (control-corrected) (log10(CPM+1)); higher = more efficient recombination; sequences stand for … in AGTGCAGAGAAAATCGGCCAGTTTTCTCTGCCTGCAGTCCGCATGCCGT…AGATTTATGCAGCGGACTGCCTTTCTCCCAAAGTGATAAACCGGACAGTATCATGGACCGGTTTTCCCGGTAATCCGTATTTGCAAGGTTGGTTTCACT; site = the 11-nt target
How it was run: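 Recombination efficiency in this pooled E. coli screen uses counts per million of barcodes at recombinant junctions, averaged and corrected against the control. The reported form is log10(CPM+1). Two replicates were plated on chloramphenicol/ampicillin LB agar as control and two on chloramphenicol/ampicillin/kanamycin with 0.1 mM IPTG.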
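Note: IS621 recombinase and bridge RNA in Escherichia coli cells.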

Sequence	recombinant barcode read abundance (log10)
TCTAGAACTTGGGTTCTAACCTGTTGCCT (site TCTAGAACTAG)	0.0829
CTGATCCCTTGGGTTCTAACCTGTTGCCT (site CCGATCCCTAG)	0.182
CTGGTGTCTTGGGTTCTAACCTGTTGCCA (site CTGGTGTCTTG)	1.12
ATGTGCTCTTGGGTTCTAACCTGTTGCCT (site AAGTGCTCTAG)	0.204
GGCTCTACTTGGGTTCTAACCTGTTGCGG (site GGCTCTACTCC)	0.326
GAGTCGGCTTGGGTTCTAACCTGTTGCTT (site GAGCCGGCTAA)	0
CCAGTAACTTGGGTTCTAACCTGTTGCCT (site CCAGTTACTAG)	0.0883
GGGACTTCTTGGGTTCTAACCTGTTGCAT (site GGGGCTTCTAT)	0.273
GTCGAACCTTGGGTTCTAACCTGTTGCTA (site GTCGAACCTTA)	1.79
TTGACTGCTTGGGTTCTAACCTGTTGCCT (site TTGATTGCTAG)	0.0272
CTCGTTGCTTGGGTTCTAACCTGTTGCCT (site CTCGTTGCTAG)	0.519
AGTGGAGCTTGGGTTCTAACCTGTTGCCT (site AGTGGAGCTAG)	2.27
TAGGATCCTTGGGTTCTAACCTGTTGCGA (site ACCCGCTCTAG)	0.205
CCGTACTCTTGGGTTCTAACCTGTTGCCT (site CCGTAGTCTAG)	0.0897
CGCTGGCCTTGGGTTCTAACCTGTTGCTT (site CGCTGACCTAA)	0.033
ATGCGAGCTTGGGTTCTAACCTGTTGCTG (site ATGCGAGCTCC)	0.687
CTGCACCCTTGGGTTCTAACCTGTTGCTA (site GGCGGAGCTCG)	0.378
GTAATGACTTGGGTTCTAACCTGTTGCCT (site GTAATGACTAG)	1.6
GTACGTCCTTGGGTTCTAACCTGTTGCCT (site GTACGTCCTAT)	0.0848
CATGTACCTTGGGTTCTAACCTGTTGCCT (site TATGTACCTAG)	0.0813
CATCGCACTTGGGTTCTAACCTGTTGCCT (site CTTCGCACTAG)	0.184
AAAACTACTTGGGTTCTAACCTGTTGCCA (site AAAACTACTTG)	0.2

Sequence	recombinant barcode read abundance (log10)
TAACCTACTTGGGTTCTAACCTGTTGCCT (site TAACCTCCTAG)	0.055
ATACTAACTTGGGTTCTAACCTGTTGCCT (site AAACTAACTAG)	0.0718
GGTCCTCCTTGGGTTCTAACCTGTTGCGA (site TCCTAGTCTCT)	0.229
CTAAGTTCTTGGGTTCTAACCTGTTGCGT (site CTAAGTTCTAC)	1.77
TTGCATTCTTGGGTTCTAACCTGTTGCTG (site AAAGGGGCTAG)	0.147
ACCTGGCCTTGGGTTCTAACCTGTTGCCT (site ACCTGACCTAG)	0.165
CTATGTGCTTGGGTTCTAACCTGTTGCGT (site CTATGTGCTAG)	0.0548
AATAGGCCTTGGGTTCTAACCTGTTGCGT (site AATTGGCCTAC)	0.0726
GTATCCACTTGGGTTCTAACCTGTTGCTA (site GTATCCACTTA)	1.47
TAGGATACTTGGGTTCTAACCTGTTGCAC (site TAGGATACTGT)	2.08
CGCCTCACTTGGGTTCTAACCTGTTGCCT (site CGCCTCGCTAG)	0.166
TTGATGACTTGGGTTCTAACCTGTTGCCT (site TTGTAGACTAG)	0.103
CTTTAGACTTGGGTTCTAACCTGTTGCAT (site CTCTAGACTAC)	0.0162
GAGCGAGCTTGGGTTCTAACCTGTTGCAT (site GAGTGAGCTAT)	0.735
CCAGGAGCTTGGGTTCTAACCTGTTGCCT (site CCAGGAGCTAG)	0.545
GGTGGGTCTTGGGTTCTAACCTGTTGCTT (site GGTGGGTCTAC)	0.663
ACAAGCCCTTGGGTTCTAACCTGTTGCCT (site ATAAGCCCTAG)	0.0711
TGGTGCGCTTGGGTTCTAACCTGTTGCCT (site TGGTCCGCTAG)	0.324
AGGAGCCCTTGGGTTCTAACCTGTTGCTC (site AGGAGCCCTAA)	0.124
TTGTAAGCTTGGGTTCTAACCTGTTGCCG (site TTGTAAGCTCG)	0.653
AAGGCCTCTTGGGTTCTAACCTGTTGCCA (site AAGGCCTCTTG)	1.88
GACTTCCCTTGGGTTCTAACCTGTTGCAT (site GACTTACCTAT)	0.352

Sequence	recombinant barcode read abundance (log10)
ATGTACACTTGGGTTCTAACCTGTTGCCT (site ATGGATACTAG)	0.0684
CCGGTGCCTTGGGTTCTAACCTGTTGCCT (site CTGGTGCCTAG)	0.21
CGTGCAGCTTGGGTTCTAACCTGTTGCCT (site CGTGCAGCTAG)	0.323
TGTCTCCCTTGGGTTCTAACCTGTTGCTT (site TGTCTACCTTA)	0.0416
CATCTATCTTGGGTTCTAACCTGTTGCCT (site CATCGATCTAG)	0.353
ATATGGACTTGGGTTCTAACCTGTTGCTA (site ATATGGACTTA)	1.62
TAGTCGTCTTGGGTTCTAACCTGTTGCTT (site TAGTCGTCTAA)	0.456
GAGTTTGCTTGGGTTCTAACCTGTTGCCT (site GTGTTTGCTAG)	0.0382
GGTTGCACTTGGGTTCTAACCTGTTGCCT (site AGTTGCTCTAG)	0.189
TCGGATACTTGGGTTCTAACCTGTTGCGT (site TCGGATACTAG)	0.265
TAAAAGACTTGGGTTCTAACCTGTTGCCT (site TAAAAGACTAG)	0.307
AGCTTACCTTGGGTTCTAACCTGTTGCCT (site AGCTTACCTAG)	0.204
CATAACCCTTGGGTTCTAACCTGTTGCAT (site CATAACCCTAT)	1.84
AAAGCTCCTTGGGTTCTAACCTGTTGCTT (site AAAGCTCCTAA)	0.318
TATTCTACTTGGGTTCTAACCTGTTGCGG (site TATTCTACTGC)	0.101
CTGAAGCCTTGGGTTCTAACCTGTTGCCT (site TTGAAGCCTAG)	0.409
CCTAATACTTGGGTTCTAACCTGTTGCTT (site CCTAATACTAA)	0.155
CCTCAGGCTTGGGTTCTAACCTGTTGCCC (site CCTCAGGCTCG)	0.0734
ACCCAAGCTTGGGTTCTAACCTGTTGCCT (site ACCCAATCTAG)	0.196
TAGAATGCTTGGGTTCTAACCTGTTGCTT (site TAGAATGCTAG)	0.148
CAACTTCCTTGGGTTCTAACCTGTTGCGT (site CAACTTCCTAC)	1.18
CCGCCCTCTTGGGTTCTAACCTGTTGCCT (site CAGCCCTCTAG)	0.0642

Sequence	recombinant barcode read abundance (log10)
ATACTAACTTGGGTTCTAACCTGTTGCCT (site AGACTAACTAG)	0.0472
CATGACCCTTGGGTTCTAACCTGTTGCCT (site CACGACCCTAG)	0.774
ATCTATTCTTGGGTTCTAACCTGTTGCCT (site ATCGATGCTAG)	0.198
TTATTGTCTTGGGTTCTAACCTGTTGCCT (site TTATTGTCTAG)	1.37
GGGGCGCCTTGGGTTCTAACCTGTTGCCT (site GGGGCGGCTAG)	0
ATCCAGCCTTGGGTTCTAACCTGTTGCCT (site ATCCATCCTAG)	0.0724
TGTGAGTCTTGGGTTCTAACCTGTTGCTT (site TGTGAGTCTAT)	0.799
AGTCCCGCTTGGGTTCTAACCTGTTGCCA (site GCATATACTAC)	0.212
GTACAATCTTGGGTTCTAACCTGTTGCCT (site CTACAATCTAG)	0.339
CGAAATGCTTGGGTTCTAACCTGTTGCCT (site CGCAATGCTAG)	0.0184
GGGGTGTCTTGGGTTCTAACCTGTTGCTG (site GGGGTGTCTCA)	0.413
AGTAAGACTTGGGTTCTAACCTGTTGCAT (site AGTAAGACTAG)	0.423
TCGGATACTTGGGTTCTAACCTGTTGCGT (site TCGGATACTAA)	0.0447
TGCAAGTCTTGGGTTCTAACCTGTTGCCT (site TGCGAGTCTAG)	0.137
CACACGACTTGGGTTCTAACCTGTTGCTT (site TGGTTACCTCC)	0.0367
GCTAACACTTGGGTTCTAACCTGTTGCCT (site GCTAACACTAG)	1.37
CGTCTGCCTTGGGTTCTAACCTGTTGCCT (site TGTCTGCCTAG)	0.193
GCCTATGCTTGGGTTCTAACCTGTTGCCT (site GCCTATGCTAG)	0.852
TCTAAGGCTTGGGTTCTAACCTGTTGCCT (site TCGAAGGCTAG)	0.048
CTAAATCCTTGGGTTCTAACCTGTTGCCT (site ATAAATCCTAG)	0.111
